≈ marks a conversion by molar mass, not a printed value.

As a reminder, the T/C is the result in the treated group divided by that in the control group, in per cent. As a reminder, the solubility is how much of the substance goes into solution per volume.

Data set [1] relates to P388. The experiment in a line: In vivo cytotoxicity against mouse P388 cells at 20 mg/kg. Format: functional.
The test system of data set [2] is P388. Put plainly: In vivo cytotoxicity against mouse P388 cells at 10 mg/kg. It is filed as functional.
The test system of data set [3] is P388. The experiment in a line: In vivo cytotoxicity against mouse P388 cells at 5 mg/kg. It is filed as functional.
The subject of data set [4] is P388. Put plainly: In vivo cytotoxicity against mouse P388 cells at 2.5 mg/kg. It is filed as functional.
In a further data set the test system is KB. The experiment in a line: Cytotoxicity against human KB cells. It is filed as functional. The settings on record: for EC50: Homo sapiens, KB, read-out: ED50 (the source's name).
Data set [5] has as its system P388. Put plainly: In vivo cytotoxicity against mouse P388 cells at 3.25 mg/kg. Format: functional.
Data set [6] concerns P388. Put plainly: In vivo cytotoxicity against mouse P388 cells at 26 mg/kg. Format: functional.
The test system of data set [7] is P388. The experiment in a line: In vivo cytotoxicity against mouse P388 cells at 13 mg/kg. Format: functional.
The subject of data set [8] is P388. The experiment in a line: In vivo cytotoxicity against mouse P388 cells at 6.5 mg/kg. Format: functional.
Data set [9] is described as follows: Solubility in water by HPLC method. Format: physicochemical.
For data set [10], the system named is P388. The experiment in a line: In vivo cytotoxicity against mouse P388 cells at 40 mg/kg. Format: functional.
A short description of data set [11]: Chemical stability assessed as decomposition to taxol at pH 6.6 after 20 hrs. It is filed as physicochemical. To be noted: buffer, pH 6.6, 20 h.
A short description of data set [12]: Stability in water assessed as decomposition to taxol after 24 hrs. Format: physicochemical. To be noted: buffer.
In data set [13] the test system is P388. Put plainly: In vivo cytotoxicity against mouse P388 cells at 22 mg/kg. Format: functional.
The test system of data set [14] is P388. Put plainly: In vivo cytotoxicity against mouse P388 cells at 11 mg/kg. It is filed as functional.
Data set [15] relates to P388. The experiment in a line: In vivo cytotoxicity against mouse P388 cells at 44 mg/kg. It is filed as functional.

For `CC(=O)O[C@H]1C(=O)[C@@]2(C)[C@H]([C@H](OC(=O)c3ccccc3)[C@]3(O)C[C@H](OC(=O)[C@H](OC(C)=O)[C@@H](NC(=O)c4ccccc4)c4ccccc4)C(C)=C1C3(C)C)[C@]1(OC(C)=O)CO[C@@H]1C[C@@H]2O`, the T/C came out at 140% with P388 [1], 130% with P388 [2], 127% with P388 [3] and 127% in the data set on P388 [4]. This compound also came in with an ED50 in the data set with KB of 2 ×10⁻⁵ ug/ml.

With `CC(=O)O[C@H]1C(=O)[C@@]2(C)[C@H]([C@H](OC(=O)c3ccccc3)[C@]3(O)C[C@H](OC(=O)[C@@H]4OC(=O)N(C(=O)c5ccccc5)[C@H]4c4ccccc4)C(C)=C1C3(C)C)[C@]1(OC(C)=O)CO[C@@H]1C[C@@H]2O`, in the data set with KB, the EC50 amounted to 0.2 µg/mL (≈ 0.227 µM).

As for `CC(=O)O[C@H]1C(=O)[C@@]2(C)[C@H]([C@H](OC(=O)c3ccccc3)[C@]3(O)C[C@H](OC(=O)[C@H](OC(=O)CCNC(=O)OCc4ccccc4)[C@@H](NC(=O)c4ccccc4)c4ccccc4)C(C)=C1C3(C)C)[C@]1(OC(C)=O)CO[C@@H]1C[C@@H]2O`, in the data set with KB, the ED50 is 1 ×10⁻⁴ ug/ml.

Take `CC(=O)O[C@H]1C(=O)[C@@]2(C)[C@H]([C@H](OC(=O)c3ccccc3)[C@]3(O)C[C@H](OC(=O)[C@H](O)[C@@H](NC(=O)c4ccccc4)c4ccccc4)C(C)=C1C3(C)C)[C@]1(OC(C)=O)CO[C@@H]1C[C@@H]2O` [PACLITAXEL]: the T/C in the data set on P388 [1] is on record as 104%; in the data set on P388 [2], 137%; with P388 [3], 156%; in the data set on P388 [4], 147%. In the data set with KB, this compound gave an ED50 of 1 ×10⁻⁵ ug/ml.

As to `CC(=O)O[C@H]1C(=O)[C@]2(C)[C@@H](OC(C)=O)C[C@H]3OC[C@@]3(OC(C)=O)[C@H]2[C@H](OC(=O)c2ccccc2)[C@]2(O)C[C@H](OC(=O)[C@H](O)[C@@H](NC(=O)c3ccccc3)c3ccccc3)C(C)=C1C2(C)C` [PACLITAXEL C7 ACETYLCARBOXYLIC ACID ESTER], the T/C with P388 [5] was 128%; in the data set on P388 [6] it was 130%; with P388 [7] it was 127%; in the data set on P388 [8], 124%. For the same compound, the EC50 in the data set on KB is 0.004 µg/mL (≈ 0.00446 µM).

Compound `CC(=O)O[C@H]1C(=O)[C@@]2(C)[C@H]([C@H](OC(=O)c3ccccc3)[C@]3(O)C[C@H](OC(=O)[C@H](OC(=O)CCN)[C@@H](NC(=O)c4ccccc4)c4ccccc4)C(C)=C1C3(C)C)[C@]1(OC(C)=O)CO[C@@H]1C[C@@H]2O.O=CO` registered a solubility in data set [9] of 2200 µg/mL. For the same compound, the T/C in the data set with P388 [10] was 140%; with P388 [1], 130%; with P388 [2], 117%. Moreover, the Stability entry in data set [11] was “Unstable”; in data set [12], 90%. The compound also returned an ED50 in the data set on KB of 2 ×10⁻⁴ ug/ml.

Turning to `CC(=O)O[C@H]1C(=O)[C@@]2(C)[C@H]([C@H](OC(=O)c3ccccc3)[C@]3(O)C[C@H](OC(=O)[C@H](O[Si](C)(C)C(C)(C)C)[C@H](NC(=O)c4ccccc4)c4ccccc4)C(C)=C1C3(C)C)[C@]1(OC(C)=O)CO[C@@H]1C[C@@H]2O`, in the data set on KB, the EC50 is 0.3 µg/mL (≈ 0.31 µM).

As to `CC(=O)O[C@H]1C(=O)[C@]2(C)[C@@H](OC(C)=O)C[C@H]3OC[C@@]3(OC(C)=O)[C@H]2[C@H](OC(=O)c2ccccc2)[C@]2(O)C[C@H](OC(=O)[C@H](OC(C)=O)[C@@H](NC(=O)c3ccccc3)c3ccccc3)C(C)=C1C2(C)C`, the T/C in the data set with P388 [10] is listed as 104%; in the data set on P388 [1], 100%; with P388 [2] it was 105%. Also, in the data set on KB, the EC50 came to 0.2 µg/mL (≈ 0.213 µM).

In the case of `CC(=O)O[C@H]1C(=O)[C@@]2(C)[C@H]([C@H](OC(=O)c3ccccc3)[C@]3(O)C[C@H](OC(=O)[C@H](OC(=O)CCC(=O)O)[C@@H](NC(=O)c4ccccc4)c4ccccc4)C(C)=C1C3(C)C)[C@]1(OC(C)=O)CO[C@@H]1C[C@@H]2O`, the T/C came out at 122% in the data set on P388 [13], 112% in the data set on P388 [14] and 129% in the data set on P388 [15]. In the data set on KB, the EC50 amounted to 0.01 µg/mL (≈ 0.0105 µM).

Values taken from ChEMBL document CHEMBL1150750, “Modified taxols, 4. Synthesis and biological activity of taxols modified in the side chain” (J Nat Prod, 1988).
